Reference: patent US10945438B2, “Methods and compositions for reducing fungal infestation and improving grass quality” (BASF CORPORATION, priority 2015, dated 2021)

System: yellow spot
Experiment: Percent turf area exhibiting yellow spot symptoms (Example 2)
Type: in vivo, Agrostis palustris
Conditions: alone versus in combination
Procedure: In another aspect, a composition herein treats or reduces yellow spot disease. Yellow spot appears in the form of yellow, chlorotic, circular discrete patches ranging from dime/quarter size up to 2-3 inches diameter on bentgrass putting greens, tees, and approaches.
The study was conducted on “A-1” creeping bentgrass maintained as a golf course putting green. Plots were mowed 6 times per week with clippings collected. The study was irrigated to prevent drought stress. Individual plots were 3 ft×6 ft and arranged in a randomized complete block design with 4 replications. Chipco 26GT (4 fl oz/1000 ft^2) was applied to the study for suppression of dollar spot and brown patch on 2 May, 9 June, 29 July, and 20 August. Treatments were applied in water equivalent to 2 gal 1000 ft-2 with a CO2-powered sprayer equipped with a TeeJet AI9508E nozzle at 50 psi. Treatments were initiated on 24 April and applied on 28-day intervals. The study was irrigated with 0.1-0.2 inches of water after all treatments were applied. […] Turfgrass quality was assessed on 24 April, 21 May, 18 June, 16 July, 13 August, and 2 September. NDVI was assessed on 21 May, 18 June, 17 July, 13 August, and 2 September. Root length (3 subsamples per plot) was assessed on 18 September.

CCCOC(=O)NCCCN(C)C [propamocarb]
Control of yellow spot disease (in words): not controlled
